Results reported in patent publication US7541463B2, “Sulfur-containing naphthalimide derivatives” (East China University of Science and Technology, priority 2003, dated 2009).
Values belong to the compound of their own block, whether it stands above or below them.

Columns and labels:
[1] = test system: human lung adenocarcinoma cell A-549; assay: Growth inhibition of A-549 cells, SRB protein staining assay; format: cell-based; conditions: read-out: Growth inhibition effect to A-549 cell strain; for inhibition at 100 µM: A549, 10^−4 M; for inhibition at 10 µM: A549, 10^−5 M; for inhibition at 1 µM: A549, 10^−6 M; for inhibition at 0.1 µM: A549, 10^−7 M; for inhibition at 0.01 µM: A549, 10^−8 M
Experimental: (§1) The cell growth inhibition of mice leukemia cell P388 was evaluated by MTT (microculture tetrozolium) assay, while the cell growth inhibition of human lung adenocarcinoma cell A-549 was evaluated by SRB (Sulforhodamine B) protein staining assay.
The procedure of SRB assay was as follows: appropriate amount of cells in log phase were seeded in 96-well plates according to the growing rate (90 ul/well). After cultured for 24 h, cells were exposed to serial dilutions of drugs in triplicate (10 ul/well). In addition, control wells of normal saline in corresponding concentrations and zeroing wells without cell were set. The cells were incubated in 5% CO2 humidified incubator at 37° C. After 72 h, the medium was removed and cells were fixed with cold 10% trichloric acid (TCA) at 4° C. for 1 h. The plates were washed with distilled water 5 times, and stained in room temperature with 4 mg/ml SRB (Sigma, diluted with 1% glacial acetic acid, 100 ul/well) for 15 minutes after air drying. SRB was then washed with 1% acetic acid 5 times. Plates were dried, followed by adding 150 ul/well Tris solution. Absorbance was measured at […] using a multiwell spectrophotometer. The inhibition effect of the compounds in test (percentage of growth inhibition) was calculated for each well: % inhibition=(A540control cells−A540treated cells)/A540control cells×100%.
(§2) The cell lines used were mice leukemia cell P388, human leukemia cell MOLT-4, human lung adenocarcinoma cell A-549, human gastric adenocarcinoma SGC-7901, human hepatocellular carcinoma BEL-7402 and human embryonal fibroblast WI-38 (commerially available from ATCC).
(§3) The exposure time to compounds was 48 h-72 h.

mice leukemia cell P388 = assay: Growth inhibition of P388 cells, MTT assay; format: cell-based; conditions: Mus musculus, read-out: Growth inhibition effect to P388 cell strain; for inhibition at 100 µM: 10^−4 M; for inhibition at 10 µM: 10^−5 M; for inhibition at 1 µM: 10^−6 M; for inhibition at 0.1 µM: 10^−7 M; for inhibition at 0.01 µM: 10^−8 M
Experimental: as §1
The procedure of MTT assay was as follows: appropriate amount of cells in log phase were seeded in 96-well plates (6000 cells/well, 15000 cells/well, 90ul/well) according to the growing rate. After cultured for 24 h, cells were exposed to serial dilutions of drugs in triplicate (10 ul/well). In addition, wells without cell, and wells without cell but with serial dilutions of drugs in case of using a colored-drug were set for zeroing. Then, the cells were cultured in 5% CO2 humidified incubator at 37° C. for 48 h. After treatment of drugs for 48 h, 20ul MTT (Sigma) which was diluted by normal saline to the concentration of 5 mg/ml was added to each well, 50ul/well 10%SDS-5% isobutanol-0.01% mol/LHCl was added after 4 h. After cultured overnight, absorbance was measured at 570 nm using a multiwell spectrophotometer. The inhibition effect of the compounds in test (percentage of growth inhibition) was calculated for each well: % inhibition=(OD570control cells−OD570treated cells)/OD570control cells×100%.
as §2, §3

Structure (SMILES): C=C(C)C(CN1C(=O)c2cccc3c2c(cc2c4ccccc4sc32)C1=O)OO (stereo not drawn) [compound 19]
melting point: 174 to 175 °C

Structure (SMILES): O=C(ON1C(=O)c2cccc3cccc(c23)C1=S)c1ccccc1 [compound 24]
melting point: 189 to 190 °C

Structure (SMILES): CN(C)CCCN1C(=O)c2cccc3c2c(cc2nnsc23)C1=O [compound 13, 5-(N′,N′-dimethylaminopropyl)-4H, 6H-benzo[de]-1,2,3,-thiadiazol[5,4-g]isoquinoline-4,6-diketone]
melting point: 101 to 102 °C
inhibition at 100 µM [1]: 95.9%
inhibition at 10 µM [1]: 94.4%
inhibition at 1 µM [1]: 90.6%
inhibition at 0.1 µM [1]: 0%
inhibition at 0.01 µM [1]: 0%
inhibition at 100 µM (mice leukemia cell P388): 99.5%
inhibition at 10 µM (mice leukemia cell P388): 89.2%
inhibition at 1 µM (mice leukemia cell P388): 19.8%
inhibition at 0.1 µM (mice leukemia cell P388): 11%
inhibition at 0.01 µM (mice leukemia cell P388): 14.5%

Structure (SMILES): CN(C)CCCN1C(=O)c2cccc3c2c(cc2c4ccccc4sc32)C1=O [compound 18, N-(N′,N′-dimethylaminopropyl)benzo[b]thieno[2,1-c] naphthalimide]
melting point: 168 to 170 °C
inhibition at 100 µM [1]: 95.3%
inhibition at 10 µM [1]: 96.9%
inhibition at 1 µM [1]: 81.1%
inhibition at 0.1 µM [1]: 47.2%
inhibition at 0.01 µM [1]: 1.7%
inhibition at 100 µM (mice leukemia cell P388): 100%
inhibition at 10 µM (mice leukemia cell P388): 100%
inhibition at 1 µM (mice leukemia cell P388): 29.8%
inhibition at 0.1 µM (mice leukemia cell P388): 17.1%
inhibition at 0.01 µM (mice leukemia cell P388): 5.5%

Structure (SMILES): O=C(ON1C(=O)c2cccc3cccc(c23)C1=S)c1ccc(Cl)cc1F [compound 30]
melting point: 208 to 210 °C

Structure (SMILES): Cc1ccc(-c2nc3cc4c5c(cccc5c3s2)C(=O)N(CCN(C)C)C4=O)cc1 [compound 6, N-(N′,N′-dimethylaminoethyl)-4H, 6H-9-p-methylphenyl-benzo[d, e]thiazol[5,4-g]isoquinoline4,6-diketone]
melting point: 202 to 203 °C
inhibition at 100 µM [1]: 95.8%
inhibition at 10 µM [1]: 92.3%
inhibition at 1 µM [1]: 52.7%
inhibition at 0.1 µM [1]: 31.5%
inhibition at 0.01 µM [1]: 7.1%
inhibition at 100 µM (mice leukemia cell P388): 96%
inhibition at 10 µM (mice leukemia cell P388): 74.7%
inhibition at 1 µM (mice leukemia cell P388): 47.7%
inhibition at 0.1 µM (mice leukemia cell P388): 29.3%
inhibition at 0.01 µM (mice leukemia cell P388): 13%

Structure (SMILES): CCCCN1C(=O)c2cccc3c2c(cc2nnsc23)C1=O [compound 12, 5-butyl-4H, 6H-benzo[de]-1,2,3,-thiadiazol[5,4-g]isoquinoline4,6-diketone]
melting point: 177 to 179 °C
inhibition at 100 µM [1]: 69.4%
inhibition at 10 µM [1]: 75.2%
inhibition at 1 µM [1]: 0%
inhibition at 0.1 µM [1]: 2.3%
inhibition at 0.01 µM [1]: 0%
inhibition at 100 µM (mice leukemia cell P388): 54.3%
inhibition at 10 µM (mice leukemia cell P388): 23.2%
inhibition at 1 µM (mice leukemia cell P388): 17.1%
inhibition at 0.1 µM (mice leukemia cell P388): 12.3%
inhibition at 0.01 µM (mice leukemia cell P388): 15.6%

Structure (SMILES): CCCCN1C(=O)c2cccc3c2c(cc2c4ccccc4sc32)C1=O [compound 15, N-butylbenzo[b] thieno[2,1-c]naphthalimide]
melting point: 170 to 172 °C
inhibition at 100 µM [1]: 94%
inhibition at 10 µM [1]: 45.6%
inhibition at 1 µM [1]: 0%
inhibition at 0.1 µM [1]: 0%
inhibition at 0.01 µM [1]: 0%
inhibition at 100 µM (mice leukemia cell P388): 51.8%
inhibition at 10 µM (mice leukemia cell P388): 26%
inhibition at 1 µM (mice leukemia cell P388): 3.2%
inhibition at 0.1 µM (mice leukemia cell P388): 3.2%
inhibition at 0.01 µM (mice leukemia cell P388): 5.8%

Structure (SMILES): O=C1c2cccc3c2c(cc2c4ccccc4sc32)C(=O)N1CCN1CCNCC1 [compound 17, N-(2′-piperazinylethyl)benzo[b]thieno[2,1-c] naphthalimide]
melting point: 226 to 228 °C
inhibition at 100 µM [1]: 91.1%
inhibition at 10 µM [1]: 95.4%
inhibition at 1 µM [1]: 46.8%
inhibition at 0.1 µM [1]: 0%
inhibition at 0.01 µM [1]: 1.7%
inhibition at 100 µM (mice leukemia cell P388): 100%
inhibition at 10 µM (mice leukemia cell P388): 100%
inhibition at 1 µM (mice leukemia cell P388): 23.9%
inhibition at 0.1 µM (mice leukemia cell P388): 4.5%
inhibition at 0.01 µM (mice leukemia cell P388): 2%

Structure (SMILES): O=C(ON1C(=O)c2cccc3cccc(c23)C1=S)c1ccc(Cl)cc1 [compound 26]
melting point: 182 to 183 °C

Structure (SMILES): CC(C)=CCN1C(=O)c2cccc3c2c(cc2c4ccccc4sc32)C1=O [compound 21]
melting point: 207 to 208 °C

Structure (SMILES): C=C(C)C(CCn1c(=O)c2ccc3sc4ccccc4c4ccc(c1=O)c2c34)OO (stereo not drawn) [compound 22]
melting point: 210 to 211 °C

Structure (SMILES): C=C(C)C(O)CN1C(=O)c2cccc3c2c(cc2c4ccccc4sc32)C1=O (stereo not drawn) [compound 20]
melting point: 95 to 97 °C

Structure (SMILES): CN(C)CCN1C(=O)c2cccc3c2c(cc2nc(-c4ccccc4)sc23)C1=O [compound 5, N-(N′,N′-dimethylaminoethyl)-4H, 6H-9-phenyl-benzo[de]thiazol[5,4-g]isoquinoline-4,6-diketone]
melting point: 220 to 221 °C
inhibition at 100 µM [1]: 94.8%
inhibition at 10 µM [1]: 91.5%
inhibition at 1 µM [1]: 73%
inhibition at 0.1 µM [1]: 69.7%
inhibition at 0.01 µM [1]: 17.8%
inhibition at 100 µM (mice leukemia cell P388): 96.6%
inhibition at 10 µM (mice leukemia cell P388): 87.7%
inhibition at 1 µM (mice leukemia cell P388): 48.2%
inhibition at 0.1 µM (mice leukemia cell P388): 21.1%
inhibition at 0.01 µM (mice leukemia cell P388): 8.1%

Further lines, with some results ahead:

melting point: 209 to 211 °C
Structure (SMILES): O=C(ON1C(=O)c2cccc3cccc(c23)C1=S)c1ccco1 [compound 34]

melting point: 240 to 241 °C
Structure (SMILES): CN(C)CCN1C(=O)c2cccc3c2c(cc2nc(-c4ccccc4O)sc23)C1=O [compound 8, N-(N′,N′-dimethylaminoethyl)-4H, 6H-9-o-hydroxyphenyl-benzo[de]thiazol[5,4-g]isoquinoline-4,6-diketone]
inhibition at 100 µM [1]: 95.2%
inhibition at 10 µM [1]: 59.6%
inhibition at 1 µM [1]: 18.6%
inhibition at 0.1 µM [1]: 1%
inhibition at 0.01 µM [1]: 0.2%
inhibition at 100 µM (mice leukemia cell P388): 94.8%
inhibition at 10 µM (mice leukemia cell P388): 45.9%
inhibition at 1 µM (mice leukemia cell P388): 24.9%
inhibition at 0.1 µM (mice leukemia cell P388): 10%
inhibition at 0.01 µM (mice leukemia cell P388): 8.8%

melting point: 145 to 146 °C
Structure (SMILES): O=C1c2cccc3c2c(cc2nnsc23)C(=O)N1CCN1CCNCC1 [compound 14, 5-(2′-piperazinylethyl)-4H, 6H-benzo[de]-1,2,3,-thiadiazol[5,4-g]isoquinoline-4,6-diketone]
inhibition at 100 µM [1]: 95.9%
inhibition at 10 µM [1]: 96.1%
inhibition at 1 µM [1]: 87.3%
inhibition at 0.1 µM [1]: 60.2%
inhibition at 0.01 µM [1]: 4.4%
inhibition at 100 µM (mice leukemia cell P388): 98.8%
inhibition at 10 µM (mice leukemia cell P388): 90.8%
inhibition at 1 µM (mice leukemia cell P388): 16.8%
inhibition at 0.1 µM (mice leukemia cell P388): 13.7%
inhibition at 0.01 µM (mice leukemia cell P388): 18.4%

melting point: 221 to 223 °C
Structure (SMILES): COc1ccc(C(=O)ON2C(=O)c3cccc4cccc(c34)C2=S)cc1OC [compound 32]

melting point: 216 to 218 °C
Structure (SMILES): Cc1cc(C)cc(C(=O)ON2C(=O)c3cccc4cccc(c34)C2=S)c1 [compound 31]

melting point: 286 to 287 °C
Structure (SMILES): O=c1c2ccc3sc4ccccc4c4ccc(c(=O)n1CCN1CCNCC1)c2c34 [compound 3, N-(2′-piperazinylethyl)benzo[k, l]thioxanthene-3,4-dicarboximide]
inhibition at 100 µM [1]: 78.6%
inhibition at 10 µM [1]: 92.4%
inhibition at 1 µM [1]: 69.8%
inhibition at 0.1 µM [1]: 4.7%
inhibition at 0.01 µM [1]: 0%
inhibition at 100 µM (mice leukemia cell P388): 100%
inhibition at 10 µM (mice leukemia cell P388): 100%
inhibition at 1 µM (mice leukemia cell P388): 22.2%
inhibition at 0.1 µM (mice leukemia cell P388): 0%
inhibition at 0.01 µM (mice leukemia cell P388): 0%

melting point: 235 to 237 °C
Structure (SMILES): CN(C)CCN1C(=O)c2cccc3c2c(cc2nc(-c4ccccc4Cl)sc23)C1=O [compound 10, N-(N′,N′-dimethylaminoethyl)-4H, 6H-9-o-chlorophenyl-benzo[de]thiazol[5,4-g]isoquinoline-4,6-diketone]
inhibition at 100 µM [1]: 91.4%
inhibition at 10 µM [1]: 93.4%
inhibition at 1 µM [1]: 94.5%
inhibition at 0.1 µM [1]: 35.7%
inhibition at 0.01 µM [1]: 12.5%
inhibition at 100 µM (mice leukemia cell P388): 96.1%
inhibition at 10 µM (mice leukemia cell P388): 89%
inhibition at 1 µM (mice leukemia cell P388): 64.6%
inhibition at 0.1 µM (mice leukemia cell P388): 40.5%
inhibition at 0.01 µM (mice leukemia cell P388): 7.3%

melting point: 202 to 203 °C
Structure (SMILES): CC(C)=CCCn1c(=O)c2ccc3sc4ccccc4c4ccc(c1=O)c2c34 [compound 23]
